Experimental data reported in US5770623A, “Argine antagonists for inhibition of systemic hypotension associated with nitric oxide production or endothelial derived relaxing factor” (Board of Regents, The University of Texas System, priority 1995, dated 1998).
Where two headings read alike, the source gives them in different places.

Tests used:
[1] = tested on: murine brain endothelial cells (MBEC); experiment: Nitrite production by MBEC exposed to cytokines / immunomodulators (Griess assay); type: cell-based; conditions: IFN 100 U/ml, TNF 500 U/ml, IL-1 10 U/ml, endotoxin 1 μg/ml; 48 hours
[2] = tested on: murine endothelial cells exposed to Gamma-Interferon and TNF (nitric oxide production); experiment: Inhibition of nitrite production by MBEC exposed to IFN (100 U/ml) and TNF (500 U/ml); type: cell-based; conditions: for IC50: Mus musculus, Endothelial cell, 48 h, read-out: ED50% (effective dose that inhibited 50% of the nitrite production); for potency ranking as inhibitor of nitric oxide production: analogs of Table 5
Procedure: Endothelial cells--MBEC's were isolated from murine brain microvessels and cultured on gelatin-coated tissue culture dishes in DME/F12 media supplemented with 2% PPPHS, 5% FBS (Hyolone), 50 μg/ml ECGF (Biomed Tech), and 10 U/ml heparin (Sigma) as previously described (Belloni et al. 1989). The endothelial derivation of MBEC's was determined by the presence of a non-thrombogenic surface to platelets and immunofluorescent staining for Factor VIII related antigen. MBEC's were used between passage 6-9 for all experiments.
Nitrite Assay--MBE cells were cultured on gelatin-coated well plates (Corning) in 100 μl of culture medium and treated with cytokines at 3 days post-confluence. After 48 hours, nitrite production was determined by a colorimetric assay. […] All treatments were performed in triplicate and data presented as the mean value±standard deviation. […]
production by murine endothelial cells exposed to GammaInterferon (100
U/ml) and TNF (500 U/ml) in vitro.

[3] = tested on: isolated guinea pig heart; experiment: Histamine-induced nitrite release and coronary flow in isolated perfused guinea pig heart; conditions: histamine-elicited
Procedure: Histamine was administered as a rapid bolus injection into the aorta and net nitrite release during the subsequent 2.5 minutes was determined.

[4] = tested on: guinea pig pulmonary artery rings; experiment: Relaxation of preconstricted guinea pig pulmonary artery rings; conditions: for inhibition of EDRF/NO synthesis: guinea pig pulmonary artery rings, 1 μM NE, ACh
[5] = tested on: nitroglycerin-treated dogs; experiment: Nitroglycerin-induced hypotension in dogs (Example 4); type: in vivo, dog; conditions: Table 1, Study 2: Nitroglycerin-treated (n = 3)
Procedure: Animals: Studies were carried out on 12 conditioned mongrel dogs (9 males and 3 females) weighing 22-32 kg (avg=25.3 kg). Animal care was in accordance with the recommendations of the American Association for Accreditation of Laboratory Animal Care, and met all standards prescribed by the Guide for the Care and Use of Laboratory Animals (Guide for the Care and Use of Laboratory Animals (1978) Dept. of Health, Education and Welfare, Washington, D.C. (Publ. No. 78-23). Animal protocols were approved by The University of Texas Animal Welfare Committee. The dogs were fasted overnight prior to the day of experimentation. They were anesthetized with sodium pentobarbital (25 mg/kg I.v.). Dogs were then endotracheally intubated and ventilated with a piston-driven respirator (Harvard instruments) using room air at a tidal volume of 20 ml/kg and at a rate of 10 to 12 breaths per minute, adjusted to achieve a normal arterial pH and pCO2 (Instrumentation Laboratories 1L13012 pH/Blood Gas Analyzer). Catheters were placed percutaneously into the femoral and pulmonary arteries; In the latter, a flow-directed thermal-dilation catheter was used (Abbott Critical Care Systems).
Physiologic measurements: Mean SAP and heart rate were continuously monitored (Parametron 7048 Monitoring System, Roche) and stored on a magnetic disk using an analog-to-digital converter (Scientific Solutions, Inc.). Cardiac output (CO) was determined as the mean of six measurements by thermal-dilution. Systemic vascular resistance was calculated as (SAP X80)/CO and expressed as […].
Protocol: After the blood pressure and heart rate stabilized, endotoxin (40 ug/kg, in 10 ml of phosphate-buffered saline (PBS), pH 7.4) was infused i.v. over 2 minutes. This dose of endotoxin typically induces severe and often lethal cardiovascular collapse in the dog. Blood pressure was monitored, and when either SAP fell below 60 mmHg or a stable nadir in systemic arterial pressure (SAP) was maintained for 10 minutes, L-NMA was administered (20 mg/kg in 5 ml of PBS i.v. over 1 min.). In most experiments, L-arginine (400 mg/kg in 20 mi PBS) was administered ten minutes later by i.v. infusion over 2 minutes. In control experiments, dogs without prior exposure to endotoxin received L-NMA alone. To simulate the hypotension observed in dogs receiving endotoxin, one group of dogs received a continuous i.v. infusion of nitroglycerin (2 mg/ml) at a rate adjusted to maintain the SAP at 60-70 mm Hg. Nitroglycerin-treated dogs then received L-NMA (20 mg/kg) and 20 minutes later L-arginine was administered […].
In an additional series of experiments, blood pressure was reduced to 65 mm Hg by continuous i.v. infusion of nitroglycerin, a hypotensive agent that forms NO by an L-arginine and NO synthetase-independent mechanism.

[6] = tested on: mongrel dogs with TNF-induced hypotension; experiment: TNF-induced hypotension in anesthetized dogs; type: in vivo, dog; conditions: dog, FIG. 25
Procedure: Recombinant human TNF specific activity 2×10^7 units/mg, was from the Niposn Chemical Corporation, Tokyo, Japan. TNF was administered at a dose of 10 mcg/kg in a volume of 10 ml of phosphate buffered saline containing 2 mgs/ml of dog albumin. […] Arginine was obtained from Sigma Chemical Company, St. Louis, Mo.
Four conditioned mongrel dogs, 2 males and 2 females, weighing 28 to 30 kgs, were studied. Care of the animals were in accordance with the recommendation of the American Association for Accreditation of Laboratory Animals [DHEW(DHHS) publication no. (NIH) 78-23, revised, 1978]. On the day of the experiment, the dogs were fasted overnight. They were anesthetized with phenobarbital (10 mg/kg). They were then intubated orally with a #10 fr. endotracheal tube and ventilated with a Harvard pump ventilator at a rate of 12 breaths per minute and a tidal volume of 15 ml/kg. An arterial line was percutaneously placed in the femoral artery on the day of the experiment.
Mean (electronic) and phasic systemic arterial pressures (SAP) were continuously recorded on a Hewlett-Packard recording system (model 7758B) using strain gauge manometers (Hewlett-Packard model 1290A) which were connected to the arterial line. Heart rate (HR) was determined from an EKG tracing and continuously recorded on the Hewlett-Packard recording system. Oxyhemoglobin saturation (SaO2) was obtained using a pulse oximeter (BIOX 111, Boulder, Colo.). continuous time-series records of SAP, HR, and SaO2 were obtained using a Lab Master analog-to-digital convertor (16 channel, 12 bit, 30 kHz; Scientific Solutions, Inc.) sampling at 55 Hz and storing the 6 sec averages on a magnetic disk.

[7] = tested on: L929 cells; experiment: Cytolytic activity of rh-TNF against Actinomycin D-treated L929 cells; type: cell-based, murine; conditions: murine L929 cells, in vitro
Procedure: TNF bioactivity was measured by the cytotoxicity towards murine L929 cells, in vitro.

[8] = tested on: lethal ET shock animal; experiment: Reversal of lethal-dose endotoxin shock by N^G-aminoarginine; type: in vivo
Procedure: The reversal of ET shock (lethal dose) by N^G -aminoarginine (NAA) for 4 hrs. […] FIG. 26 depicts systemic arterial pressure (SAP) versus time (min). ET (2 mg/kg), a lethal dose, was infused over 60 min. and NAA administered at 97, 165, and 374 min. to maintain blood pressure. The animal was survived for 24 hours and then autopsied.

[9] = tested on: systemic hypotension mediated by interleukin-1; experiment: Interleukin-1 mediated systemic hypotension; type: in vivo; conditions: FIG. 27
[10] = tested on: rabbit aortic rings; experiment: ACh-induced relaxation of isolated rabbit aortic rings; conditions: isolated rabbit aortic rings, FIG. 9b
Source text: FIG. 9b compares concentration-response relationships for the same set of mono- and disubstituted arginine analogs as FIG. 9a, plus an additional dimethyl analog with the two methyl groups on different guanidino nitrogens. The test is for inhibition of ACh-induced vasorelaxation in isolated rabbit aortic rings. The points plotted represent means±S.E. of the maximum responses to ACh observed in the presence of the indicated concentrations of analogs (n=4).
Guinea pig pulmonary artery (GP PA), rat and rabbit aorta (Ao), and dog coronary (CA) and femoral artery (FA) were precontracted with NE (1 μM) and relaxed with a single concentration of ACh. Concentration of ACh: GP PA 1 μM, rat Ao […], rabbit Ao 0.3, dog CA […] and […] 0.1 μM. […] The concentrations of L-citrulline (L-cit), D-arginine (D-arg) and L-arginine (L-arg) were all 0.5 mM. Bars are mean values±SEM (n=4-6).
FIG. 11 contains representative physiograph tracings which depict ACh-induced relaxation of NE-preconstricted rings prepared from rabbit aorta (upper panel) and human internal mammary artery (lower panel).

[11] = tested on: bovine aortic endothelial cells (BAEC); experiment: A23187-stimulated nitrite release from bovine aortic endothelial cells; type: cell-based; conditions: 2-hr, L-arginine-free medium, FIG. 9a
Procedure: The % inhibition of relaxation is calculated from the maximum ACh-induced relaxation observed in the presence of the arginine analog relative to that in its absence. Points represent mean values±SEM (n=4-6). […] Another N^G substitution tested for inhibition of induced nitrite release had two methyl groups on one of the arginine guanidino nitrogens. Concentration-response relationships for inhibition of A23187-stimulated nitrite release by bovine aortic endothelial cells (BAEC) are shown in FIG. 9a for the N,N-disubstituted derivative in comparison with several monosubstituted derivatives. Nitrite production was measured as an indication of nitric oxide synthesis since nitric oxide spontaneously decays to nitrite. Nitrite production by BAEC in a 2-hr. period was assessed in an L-arginine-free medium alone or in the presence of the indicated concentration of arginine analogs. The points plotted represent means±S.E. of the percent inhibition of nitrite production observed in 3 individual BAEC culture wells. The key on FIG. 9a indicates the groups substituted on the guanidino nitrogens of L-arginine.
Points are mean values±SEM (n=3).

[12] = tested on: anesthetized guinea pig; experiment: Pressor effect in the anesthetized guinea pig; type: in vivo; conditions: 1-10 mg/kg i.v. (L-NMA)
Source text: Points are mean changes in diastolic arterial pressure (±SEM; n=4-5). Control systolic and diastolic BP was 75±3 and 51±3 mm Hg, respectively.

[13] = target: EMT6 enzyme system (NO formation from L-arginine) (Mus musculus, UniProt P29477); experiment: Arginine-dependent nitrite synthesis by cytosol of stimulated EMT6 cells; type: biochemical, murine
Chain of EMT6 enzyme system (NO formation from L-arginine) (P29477 whole entry): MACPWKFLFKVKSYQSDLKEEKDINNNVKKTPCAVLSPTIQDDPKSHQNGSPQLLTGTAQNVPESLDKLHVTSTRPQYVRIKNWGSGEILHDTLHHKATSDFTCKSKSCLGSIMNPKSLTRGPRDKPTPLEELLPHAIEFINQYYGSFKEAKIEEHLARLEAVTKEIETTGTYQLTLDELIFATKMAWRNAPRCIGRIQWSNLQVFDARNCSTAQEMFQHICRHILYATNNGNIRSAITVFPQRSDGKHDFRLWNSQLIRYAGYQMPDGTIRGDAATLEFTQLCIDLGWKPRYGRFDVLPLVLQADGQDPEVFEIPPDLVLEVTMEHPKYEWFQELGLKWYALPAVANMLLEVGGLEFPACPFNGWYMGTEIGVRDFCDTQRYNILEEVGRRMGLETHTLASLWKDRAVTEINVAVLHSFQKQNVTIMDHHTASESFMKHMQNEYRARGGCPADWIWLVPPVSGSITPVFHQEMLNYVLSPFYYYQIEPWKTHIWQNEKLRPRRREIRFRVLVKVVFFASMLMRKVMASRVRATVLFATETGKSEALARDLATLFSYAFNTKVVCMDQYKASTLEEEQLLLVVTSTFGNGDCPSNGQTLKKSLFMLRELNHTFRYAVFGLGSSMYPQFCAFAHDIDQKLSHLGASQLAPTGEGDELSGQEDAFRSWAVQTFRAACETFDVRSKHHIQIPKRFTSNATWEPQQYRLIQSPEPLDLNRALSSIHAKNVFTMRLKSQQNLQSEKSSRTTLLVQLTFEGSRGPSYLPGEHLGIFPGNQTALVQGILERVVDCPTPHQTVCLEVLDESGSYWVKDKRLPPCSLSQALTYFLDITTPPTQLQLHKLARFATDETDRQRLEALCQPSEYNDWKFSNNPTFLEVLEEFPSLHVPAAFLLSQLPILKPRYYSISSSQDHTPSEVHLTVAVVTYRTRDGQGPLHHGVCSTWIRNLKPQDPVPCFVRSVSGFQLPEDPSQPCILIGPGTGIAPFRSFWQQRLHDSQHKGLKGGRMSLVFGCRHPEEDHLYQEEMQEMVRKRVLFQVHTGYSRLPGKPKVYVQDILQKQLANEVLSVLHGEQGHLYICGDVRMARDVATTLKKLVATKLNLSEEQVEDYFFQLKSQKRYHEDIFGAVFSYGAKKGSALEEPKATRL
Procedure: Thus EMT6 cytosolic preparations (i.e., cell-free solutions) were prepared and an enzyme activity was characterized which forms NO and citrulline from arginine. This reaction requires NADPH (FIG. 18 and 19) and other cofactors.
Incubation mixtures were 100 μl total volume containing: 40 μl cytosol (100,000×g supernatant), 2 mM L-arginine, 2 mM NADPH, 20 mM TRIS (pH 8.0) and a "cocktail" of protease inhibitors.
From kinetic studies an apparent Michaelis-Menton constant for L-arginine utilization by the enzyme was deduced. FIG. 20 is a Lineweaver-Burke plot for synthesis of nitrite from L-arginine by cytosol from stimulated EMT6 cells. The rate of nitrite formation was evaluated over a range of L-arginine (ARG) concentrations (from 0.03-2.0 mM) under conditions similar to that described for FIG. 18, except that incubates contained 50 μl cytosol in a total volume of 80 μl. Open and filled circles represent results obtained with each of two cytosol preparations. […] N^G -substituted arginine analogs were screened for precise quantitation of their ability to inhibit arginine-dependent NO formation by the EMT6 enzyme system.

[14] = murine endothelial cells, Gamma-Interferon (100 U/ml) and TNF (500 U/ml), in vitro

Molecule: CC(=O)N[C@H]1C(O)O[C@H](CO)[C@@H](O)[C@@H]1O[C@H](C)C(=O)N[C@@H](C)C(=O)N[C@H](CCC(=O)O)C(N)=O (stereo partly shown) [muramyl dipeptide (MDP), muramyl dipeptide, reference compound]
- effect on nitrite production by MBEC [1]: Neither muramyl dipeptide (MDP) or Il-2 alone, or in combination with IFN effected nitrite production

Molecule: COC(=O)[C@H](N)CCCNC(=N)N[N+](=O)[O-] [Nitro-D-Arginine methyl ester]
- IC50 [2]: > 4500 µM

Molecule: N=C(NCCC[C@H](N)C(=O)OCc1ccccc1)N[N+](=O)[O-] [Nitro-L-Arginine benzyl ester]
- IC50 [2, 14]: > 1200 µM

Molecule: N=C(NCCC[C@@H](N)C(=O)O)N[N+](=O)[O-] [Nitro-D-Arginine]
- IC50 [2, 14]: > 4500 µM

Molecule: NCCc1c[nH]cn1 [histamine, reference compound]
- effect on coronary flow (vasodilation) [3]: dose-dependent increase in coronary flow

Molecule: N=C(NCCC[C@H](N)C(=O)O)N[N+](=O)[O-] [Nitro-L-Arginine, N^G -nitroarginine]
- IC50 [2, 14]: 2120 µM
- inhibition of EDRF/NO synthesis [4]: served as inhibitors of EDRF/NO synthesis

Molecule: CNC(=N)NCCC[C@@H](N)C(=O)O [D-NMA, reference compound]
- inhibition of EDRF/NO synthesis [4]: not an inhibitor of EDRF/NO synthesis

Molecule: O=[N+]([O-])OCC(CO[N+](=O)[O-])O[N+](=O)[O-] [Nitroglycerin]
- Cardiac Output [5]: 2.72 ± 0.27 L/min
- Heart Rate [5]: 137.3 ± 5.0 beats/min
- Systemic Arterial Pressure [5]: 64.7 ± 2.7 mmHg
- Systemic Vascular Resistance [5]: 1924 ± 132 dynes-sec/cm^5

Molecule: COC(=O)[C@@H](N)CCCNC(=N)N[N+](=O)[O-] [Nitro-L-Arginine methyl ester]
- IC50 [2]: 1830 µM

Molecule: N=C(NN)NCCC[C@H](N)C(=O)O [Aminoarginine, L-N^G -aminoarginine]
- IC50 [2]: 110 µM
- potency ranking as inhibitor of nitric oxide production [2]: most potent inhibitor of nitric oxide production measured thusfar
- potency ranking as inhibitor of nitric oxide production ([2]; listed as N^G -aminoarginine): most potent derivative tested
- effectiveness in reversing TNF hypotension vs NMMA [6]: more effective than NMMA
- activity ranking in inhibition of ACh-induced relaxation ([4]; compounds tested thus far): greatest activity
- inhibition of EDRF/NO synthesis [4]: served as inhibitors of EDRF/NO synthesis
- effect on cytolytic effect of TNF towards tumor cells [7]: did not alter the cytolytic effect of TNF
- survival ([8]; ET 2 mg/kg, multiple NAA doses, then autopsied): 24 h
- pathological changes at autopsy ([8]; liver, lungs, heart, brain, bowel or kidney): No pathological changes
- reversal of IL-1 mediated hypotension [9]: reverse systemic hypotension

Molecule: CN(C)C(=N)NCCC[C@H](N)C(=O)O [Me,Me--]
- inhibition of EDRF/NO synthesis [4]: served as inhibitors of EDRF/NO synthesis
- inhibition of ACh-induced vasorelaxation [10]: active inhibitor
- potency for inhibition of A23187-stimulated nitrite release [11]: approximately equipotent to L-N^G -methylarginine

Molecule: CCNC(=N)NCCC[C@H](N)C(=O)O [L-N^G -ethylarginine (L-NEA), L-N^G -ethylarginine]
- effect on diastolic BP / pressor effect (words) [12]: sustained pressor effect
- mode of inhibition ([13]; Lineweaver-Burke): competitive inhibitor
- fold less active than NMMA ([13]; compared with NMMA, FIG. 22): approximately 10 -fold

Molecule: CN=C(NC)NCCC[C@H](N)C(=O)O [Me,Me'--]
- inhibition of ACh-induced vasorelaxation [10]: not a good inhibitor

B1: IFN: recombinant murine gamma-interferon (protein, UniProt P01580 23-155, looked up)
Interferon gamma: HGTVIESLESLNNYFNSSGIDVEEKSLFLDIWRNWQKDGDMKILQSQIISFYLRLFEVLKDNQAISNNISVIESHLITTFFSNSKAKKDAFMSIAKFEVNNPQVQRQAFNELIRVVHQLLPESSLRKRKRSRC
- effect on nitrite production by MBEC [1]: no effect
